Holding throughout (type): cell-based, human
The subject of series [1] is HeLa (Cervix Adenocarcinoma). Put plainly: Cell viability analysis, cervical cancer HeLa. The note with it: for viability at 10 µM: Homo sapiens, HeLa.
Series [2] deals with MKN-45 (Gastric Adenocarcinoma). Put plainly: Cell viability analysis, gastric cancer MKN-45. The note with it: for viability at 10 µM: Homo sapiens.
In series [3] the test system is HL-60 (Acute Promyelocytic Leukemia). In words: Cell viability analysis, leukemia HL-60. The settings on record: for viability at 10 µM: Homo sapiens.
Series [4] has as its system PC3 (p53−) (Prostate Adenocarcinoma). Put plainly: Cell viability analysis, prostate cancer PC3. The note with it: for viability at 10 µM: Homo sapiens.
Series [5] relates to HepG2 (Hepatocellular Carcinoma). In words: Cell viability analysis, hepatic cancer HepG2. The note with it: for viability at 10 µM: Homo sapiens.
The test system of series [6] is LoVo (Colorectal Adenocarcinoma). In words: Cell viability analysis, colon cancer LoVo. The note with it: for viability at 10 µM: Homo sapiens, LoVo.
The test system of series [7] is A549 (Lung Adenocarcinoma). Put plainly: Cell viability analysis, lung cancer A549. The settings on record: for viability at 10 µM: Homo sapiens.
Series [8] concerns TSGH-8301 (Urinary Bladder Carcinoma). Put plainly: Cell viability analysis, bladder cancer TSGH-8301. The note with it: for viability at 10 µM: Homo sapiens.
Series [9] has as its system HI650 (Lung Adenocarcinoma). In words: Cell viability analysis, lung cancer HI650. The note with it: for viability at 10 µM: Homo sapiens.
Series [10] has as its system cancer cell lines. In words: Cell viability analysis (WST-1) on cancer cell lines. The settings on record: drug 10 μM, 72 hours, WST-1; Table 3.
The test system of series [11] is MCF7 (Mammary Gland, Adenocarcinoma). Put plainly: Cell viability analysis, breast cancer MCF7. The note with it: for viability at 10 µM: Homo sapiens.
For series [12], the system named is A375 (Amelanotic Melanoma). In words: Cell viability analysis, skin cancer A375. The settings on record: for viability at 10 µM: Homo sapiens.
In series [13] the test system is AGS (Gastric Adenocarcinoma). In words: Cell viability analysis, gastric cancer AGS. The settings on record: for viability at 10 µM: Homo sapiens.
The mark [14] stands for this setting: 72 h, read-out: cell viability (survival rate), HeLa, drug 10 μM, 72 hours, WST-1, OD450 nm.
Setting [15] is: MKN-45, 72 h, read-out: cell viability (survival rate), MKN-45, drug 10 μM, 72 hours, WST-1, OD450 nm.
Where [16] appears, read: HL-60, 72 h, read-out: cell viability (survival rate), HL-60, drug 10 μM, 72 hours, WST-1, OD450 nm.
[17] abbreviates: 72 h, read-out: cell viability (survival rate), PC3, drug 10 μM, 72 hours, WST-1, OD450 nm.
Setting [18] is: HepG2, 72 h, read-out: cell viability (survival rate), HepG2, drug 10 μM, 72 hours, WST-1, OD450 nm.
The mark [19] stands for this setting: 72 h, read-out: cell viability (survival rate), LoVo, drug 10 μM, 72 hours, WST-1, OD450 nm.
Where [20] appears, read: A549, 72 h, read-out: cell viability (survival rate), A549, drug 10 μM, 72 hours, WST-1, OD450 nm.
The mark [21] stands for this setting: 72 h, read-out: cell viability (survival rate), TSGH, drug 10 μM, 72 hours, WST-1, OD450 nm.
Setting [22] is: NCI-H1650, 72 h, read-out: cell viability (survival rate), H1650, drug 10 μM, 72 hours, WST-1, OD450 nm.
Where [23] appears, read: MCF7, 72 h, read-out: cell viability (survival rate), MCF7, drug 10 μM, 72 hours, WST-1, OD450 nm.
[24] abbreviates: A-375, 72 h, read-out: cell viability (survival rate), A375, drug 10 μM, 72 hours, WST-1, OD450 nm.
The mark [25] stands for this setting: 72 h, read-out: cell viability (survival rate), AGS, drug 10 μM, 72 hours, WST-1, OD450 nm.
[26] abbreviates: 72 h, drug 10 μM, 72 hours, WST-1, OD450 nm, read-out: cell viability (survival rate), HeLa.
The mark [27] stands for this setting: MKN-45, 72 h, drug 10 μM, 72 hours, WST-1, OD450 nm, read-out: cell viability (survival rate), MKN-45.
Where [28] appears, read: HL-60, 72 h, drug 10 μM, 72 hours, WST-1, OD450 nm, read-out: cell viability (survival rate), HL-60.
[29] abbreviates: 72 h, drug 10 μM, 72 hours, WST-1, OD450 nm, read-out: cell viability (survival rate), PC3.
Where [30] appears, read: HepG2, 72 h, drug 10 μM, 72 hours, WST-1, OD450 nm, read-out: cell viability (survival rate), HepG2.
Where [31] appears, read: A549, 72 h, drug 10 μM, 72 hours, WST-1, OD450 nm, read-out: cell viability (survival rate), A549.
[32] abbreviates: 72 h, drug 10 μM, 72 hours, WST-1, OD450 nm, read-out: cell viability (survival rate), TSGH.
[33] abbreviates: NCI-H1650, 72 h, drug 10 μM, 72 hours, WST-1, OD450 nm, read-out: cell viability (survival rate), H1650.
Where [34] appears, read: MCF7, 72 h, drug 10 μM, 72 hours, WST-1, OD450 nm, read-out: cell viability (survival rate), MCF7.
[35] abbreviates: A-375, 72 h, drug 10 μM, 72 hours, WST-1, OD450 nm, read-out: cell viability (survival rate), A375.
The mark [36] stands for this setting: 72 h, drug 10 μM, 72 hours, WST-1, OD450 nm, read-out: cell viability (survival rate), AGS.

7 compounds from patent publication US10105357B2, “Indication of antibiotic drugs for preparation of cancer inhibition pharmaceutical composition” (LAUNX BIOMEDICAL CO., LTD., priority 2014, dated 2018) can be followed below.

Like-named read-outs stand apart in the source and are kept apart here. Positions of bridges follow the written chain, without caps; N, C: chain ends. Non-standard residues stand in square brackets, D forms with d. Residues, ends and D or L forms follow the SMILES beside them. *: point of attachment. Ileψ(thiazoline)Cys = CC[C@H](C)[C@H](N)C1=N[C@H](C(=O)*)CS1; dOrn = NCCC[C@@H](N)C(=O)O

Consider `[O-][n+]1ccccc1[S-].[O-][n+]1ccccc1[S-].[Zn+2]` [Pyrithione zinc], for which the “cell viability (survival rate), HeLa” value in series [1] came out at 47.4. In series [2], the “cell viability (survival rate), MKN-45” value was 57.4. Further, the “cell viability (survival rate), HL-60” value in series [3] turned out to be 34.5. Further, in series [4], the “cell viability (survival rate), PC3” value is on record as 24.3. The “cell viability (survival rate), HepG2” value in [5] was found to be 70.4. The “cell viability (survival rate), LoVo” value in series [6] is recorded as 45.5. Also, in series [7], the “cell viability (survival rate), A549” value is recorded as 29.7. Besides, the “cell viability (survival rate), TSGH” value in series [8] came to 28.7. The “cell viability (survival rate), H1650” value in series [9] is 60.6. Moreover, the “inhibition effect on different cancer cell lines” value in series [10] was “significant inhibition effect”. For the same compound, the “cell viability (survival rate), MCF7” value in [11] was 51.8. Further, the “cell viability (survival rate), A375” value in series [12] is reported as 27.1. Moreover, the “cell viability (survival rate), AGS” value in series [13] is reported as 35.4.

For orientation: viability means a read-out of living cells in per cent, often relative to untreated cells. With `O=C(Nc1ccccc1)c1ccccc1O` [Salicylanilide], the viability at 10 µM is 118% in series [1] (drug 10 μM, 72 hours, WST-1, OD450 nm, read-out: cell viability (survival rate), HeLa); 83.5% in series [2] (MKN-45, drug 10 μM, 72 hours, WST-1, OD450 nm, read-out: cell viability (survival rate), MKN-45); 71.1% in [3] (HL-60, drug 10 μM, 72 hours, WST-1, OD450 nm, read-out: cell viability (survival rate), HL-60); 89.7% in series [4] (drug 10 μM, 72 hours, WST-1, OD450 nm, read-out: cell viability (survival rate), PC3); 97.2% in series [5] (HepG2, drug 10 μM, 72 hours, WST-1, OD450 nm, read-out: cell viability (survival rate), HepG2); 86.2% in [6] (drug 10 μM, 72 hours, WST-1, OD450 nm, read-out: cell viability (survival rate), LoVo). For the same compound, the viability at 10 µM came out at 62.1% in series [7] (A549, drug 10 μM, 72 hours, WST-1, OD450 nm, read-out: cell viability (survival rate), A549); 108% in [8] (drug 10 μM, 72 hours, WST-1, OD450 nm, read-out: cell viability (survival rate), TSGH); 80.5% in series [9] (NCI-H1650, drug 10 μM, 72 hours, WST-1, OD450 nm, read-out: cell viability (survival rate), H1650); 106% in [11] (MCF7, drug 10 μM, 72 hours, WST-1, OD450 nm, read-out: cell viability (survival rate), MCF7); 92.8% in [12] (A-375, drug 10 μM, 72 hours, WST-1, OD450 nm, read-out: cell viability (survival rate), A375); 77.8% in series [13] (drug 10 μM, 72 hours, WST-1, OD450 nm, read-out: cell viability (survival rate), AGS). Besides, the “inhibition effect on different cancer cell lines” value in series [10] is on record as “significant inhibition effect”.

In the case of `CCOC(=O)n1ccn(C)c1=S` [Carbimazole], the viability at 10 µM in [1] (setting [14]) was found to be 90.3%; in series [2] (setting [15]), 131%; in [3] (setting [16]), 80.1%; in series [4] (setting [17]), 95.6%; in series [5] (setting [18]) it was 97.2%; in series [6] (setting [19]) it was 75%. For the same compound, the viability at 10 µM in series [7] (setting [20]) is 73.9%; in series [8] (setting [21]), 117%; in series [9] (setting [22]) it was 80.9%; in series [11] (setting [23]), 102%; in [12] (setting [24]) it was 65.1%; in [13] (setting [25]), 114%. Further, in series [10], the “inhibition effect on different cancer cell lines” value is listed as “significant inhibition effect”.

Turning to `CC1(C)O[C@@H]2C[C@H]3[C@@H]4C[C@H](F)C5=CC(=O)C=C[C@]5(C)[C@@]4(F)[C@@H](O)C[C@]3(C)[C@]2(C(=O)CO)O1` [Fluocinolone acetonide (Flucort-N), Fluocinolone acetonide], the viability at 10 µM was 46% in [1] (setting [26]); 34.9% in series [2] (setting [27]); 116% in series [3] (setting [28]); 40.7% in series [4] (setting [29]); 74.5% in series [5] (setting [30]); 52.3% in series [6] (setting [19]). Further, the viability at 10 µM was 52.5% in series [7] (setting [31]); 38.3% in series [8] (setting [32]); 58.4% in series [9] (setting [33]); 54.2% in [11] (setting [34]); 45.8% in series [12] (setting [35]); 30% in series [13] (setting [36]). Moreover, in series [10], the “inhibition effect on different cancer cell lines” value is reported as “significant inhibition effect”.

As for `COc1ccc2c(c1)c(CC(=O)OCC(=O)O)c(C)n2C(=O)c1ccc(Cl)cc1` [Acemetacin (Emflex), Acemetacin], the viability at 10 µM was 70.9% in [1] (setting [14]); 103% in [2] (setting [15]); 120% in series [3] (setting [16]); 90.5% in series [4] (setting [17]); 110% in [5] (setting [18]); 94.7% in series [6] (setting [19]). Also, the viability at 10 µM is 88.1% in series [7] (setting [20]); 99.4% in series [8] (setting [21]); 78.2% in series [9] (setting [22]); 87.3% in series [11] (setting [23]); 68.4% in series [12] (setting [24]); 69% in series [13] (setting [25]). In addition, the “inhibition effect on different cancer cell lines” value in [10] is given as “significant inhibition effect”.

`CC[C@H](C)[C@H](N)C1=N[C@H](C(=O)N[C@@H](CC(C)C)C(=O)N[C@H](CCC(=O)O)C(=O)N[C@H](C(=O)N[C@H]2CCCCNC(=O)[C@H](CC(N)=O)NC(=O)[C@@H](CC(=O)O)NC(=O)[C@H](Cc3cnc[nH]3)NC(=O)[C@@H](Cc3ccccc3)NC(=O)[C@H]([C@@H](C)CC)NC(=O)[C@@H](CCCN)NC2=O)[C@@H](C)CC)CS1` [Bacitracin] ({Ileψ(thiazoline)Cys}-L[dE]IK[dOrn]I[dF]H[dD]N; lactam 4-C): the viability at 10 µM in series [1] (setting [14]) amounted to 68.4%; in series [2] (setting [15]), 46.9%; in [3] (setting [16]), 85.9%; in series [4] (setting [17]), 70%; in [5] (setting [18]), 86.4%; in series [6] (setting [19]) it was 69.9%. The viability at 10 µM in series [7] (setting [20]) is 51.4%; in series [8] (setting [21]), 68.3%; in series [9] (setting [22]) it was 65.4%; in [11] (setting [23]), 41.4%; in [12] (setting [24]), 54.7%; in [13] (setting [25]), 61.4%. Also, the “inhibition effect on different cancer cell lines” value in series [10] is “significant inhibition effect”.

For `Cc1cn([C@H]2C=C[C@@H](CO)O2)c(=O)[nH]c1=O` [Stavudine], the viability at 10 µM in [1] (setting [26]) worked out at 98.1%; in series [2] (setting [27]), 66.8%; in [3] (setting [28]), 96%; in series [4] (setting [29]) it was 73.5%; in series [5] (setting [30]), 97.1%; in series [6] (setting [19]), 70.7%. The viability at 10 µM in series [7] (setting [31]) was 38.9%; in series [8] (setting [32]) it was 112%; in [9] (setting [33]), 50.2%; in [11] (setting [34]) it was 56.6%; in [12] (setting [35]) it was 56.1%; in series [13] (setting [36]) it was 39.2%. In series [10], the “inhibition effect on different cancer cell lines” value was “significant inhibition effect”.
